Reference: PMC10552397 (Cell Communication and Signaling : CCS, 2023)

Assays:
HeLa wt cells [1] = test: Immunofluorescence of GRASP55 and LC3; type: cell-based; details: 6 h; BafA1 10 nM
Procedure: (§1) For immunofluorescence microscopy, HeLa cells were seeded on glass coverslips in 24-well plates. After treatment, cells were fixed in 4% paraformaldehyde for 15 min on ice, quenched with 50 mM NH4Cl for 15 min and permeabilized with 50 µg/mL digitonin (Sigma-Aldrich, St. Louis, MO, USA, #D141) for 5 min. Fixed samples were blocked with 3% BSA (Roth, Karlsruhe, Germany, #8076) for 30 min or overnight and incubated with primary antibodies diluted in 3% BSA for 2 h. Samples were then washed three times with DPBS, incubated with the appropriate secondary antibodies diluted in 3% BSA for 30 min and washed three times with DPBS. Afterwards, cells were embedded in ProLong Glass Antifade Mountant (Thermo Fisher Scientific, Waltham, MA, USA, #P36980) containing 1 µg/mL DAPI (Roth, Karlsruhe, Germany, #6335.1). Images were recorded with an Axio Observer 7 fluorescence microscope (Carl Zeiss Microscopy, Oberkochen, Germany) using a 40x/1,4 Oil DIC M27 Plan-Apochromat objective (Carl Zeiss Microscopy, Oberkochen, Germany) and an ApoTome 2 (Carl Zeiss Microscopy, Oberkochen, Germany).

HeLa wt cells [2] = test: Immunofluorescence of LC3 and LAMP1; type: cell-based; details: 2 h; prodigiosin 100 nM, BafA1 10 nM
Procedure: as §1

Structure (SMILES): CO/C1=C\C(C)=C\[C@@H](C)[C@@H](O)[C@@H](C)C/C(C)=C/C=C/[C@H](OC)[C@@H]([C@@H](C)[C@@H](O)[C@H](C)[C@@]2(O)C[C@@H](O)[C@H](C)[C@@H](C(C)C)O2)OC1=O [BafA1, bafilomycin A1, reference compound]
- co-localization of LC3 and GRASP55 (HeLa wt cells [1]): no significant increase
- number of LC3 dots (HeLa wt cells [1]): enriched
- LC3-positive structures (HeLa wt cells [2]): only minor
- co-localization of LC3- and LAMP1-positive structures (HeLa wt cells [2]): comparatively low
